# Data reported in a melting point compilation (Tetko et al.; mined from patent text by program, amines drawn as free bases though some values may be those of a salt).
row,melting point [°C],SMILES
1,109 to 115,COc1ccc(-c2c(N(C)C(C)C)c(=O)c2=O)cc1
2,233 to 236,COc1cccc(CCN2C(=O)COc3ccc(C=C4SC(=S)NC4=O)cc32)c1
3,136 to 137,CCOC(=O)c1cccc(-c2cc(C(=O)OCC)c(N)[nH]2)c1
4,185 to 189,Cc1ccc(-c2cccc(OC3SCC(O)C(O)C3O)c2)nc1 (stereo not given)
5,160,Clc1cccc(C2=Nc3cccnc3Nc3ccccc32)c1
6,225 to 227,Cc1cc2oc3ccccc3c(=O)c2cc1OCC(=O)O
7,166 to 167,COc1ccc2cc(C(=O)C(C)Br)ccc2c1Br (stereo not given)
8,220 to 230,CCC(O)c1c(C)nc2ccccc2c1N (stereo not given)
9,101 to 103,CCn1nc(OCCCc2ccc(OCCOC)cc2Oc2ncc(C(F)(F)F)cc2Cl)cc1CCC(=O)O
10,158 to 159,COc1ccc(Br)cc1C(=O)C(Br)C(Br)c1ccc(Br)cc1 (stereo not given)
11,66 to 67,C=Cc1ccc2c(c1)c1ccccc1n2CC
12,147 to 149,Cc1cc(NC2=NCCN2C(=O)c2ccccc2)n(C)n1
13,219 to 220,CCOC(=O)c1cn(-c2ccc(F)cc2F)c2nc(N3CCN(C(C)=O)CC3)c(F)cc2c1=O
14,147 to 149,CC(C)Cn1c(CNC(=O)OC(C)(C)C)c(-c2cccc(F)c2)c2cc(C(N)=O)ccc2c1=O
15,> 280,Cc1c(N)c(F)cc2c(=O)c(C(=O)O)cn(-c3cc(O)c(F)cc3F)c12
16,118 to 119,N#CC(Cc1ccccn1)(c1ccc(F)cc1)c1ccc([N+](=O)[O-])c(C(F)(F)F)c1 (stereo not given)
17,197 to 199,CCOC(=O)c1ccc(C(=O)Nc2ccc3c(c2)C(C)(C)CC(=O)N3C)cc1
18,84 to 86,Cc1nc(-c2ccccc2)nc(-c2cccc([N+](=O)[O-])c2)c1C(=O)OCCO
19,136 to 141,CONC(=O)C(Cl)=Cc1cc(-n2c(=O)cc(C(F)(F)F)n(C)c2=O)ccc1Cl

row,melting point [°C],SMILES
1,249 to 252,Nc1ncnc2c1ncn2CC(=O)Nc1ccc(-n2nc(C(F)(F)F)cc2C2CC2)cc1
2,> 250,CC(=O)C1=NN(c2ccc(C(=O)O)cc2C)C(=O)C1
3,42 to 42.5,CCc1ccc(-c2onc3ccccc23)cc1
4,228 to 229,O=C1C(O)=C(O)C(=O)c2cc(Cl)ccc21
5,161 to 163,CCCN1CC(c2ccc(S(C)(=O)=O)cc2)=C(c2ccc(C)cc2)C1=O
6,146 to 147,O=C(O)CCC(=O)Cc1ccc2c(c1)Cc1cccnc1O2
7,86,CCC(=O)Nc1ccccc1C(F)(F)F
8,183 to 185,O=S(=O)(Nc1ccc2c(OCc3csc(C4COc5ccccc5O4)n3)cccc2c1)C(F)(F)F (stereo not given)
9,204 to 209,O=c1c(Cc2cccnc2)cn2c3cc(F)ccc3c3cc(OCCCO)cc1c32
10,190 to 192,O=C(Nc1c(C(O)(C(F)(F)F)C(F)(F)F)ccc2ccccc12)c1cccc(F)c1
11,98.5 to 99.5,CC(C)c1cn(C)cc(-c2cccc(C(F)(F)F)c2)c1=O
12,257 to 259,CC(=O)Nc1cn2cc(Sc3ccccc3)ccc2n1
13,> 280,CC(C)(C)c1ccc(C(=O)n2c3cc(O)c(O)cc3c3c(Br)cc(O)c(O)c32)cc1
14,137 to 138,Cc1nnc(-c2ccc3occ(-c4cnn(Cc5cccnc5)c4)c3c2)o1
15,202 to 203,O=c1nc(-c2ccc[nH]2)sc2ccccc12
16,233 to 234,Cc1cc(OCC(=O)OC(C)C)ccc1NC(=O)NC(=O)c1ccc(C#N)cc1
17,173 to 175,O=C(/C=C/c1ccccc1Cl)Nc1ccc(-n2nc(C(F)(F)F)cc2C(F)(F)F)cc1
18,238 to 239,Cc1cc(C(=O)c2ccc(Br)cc2)c(O)cc1Cl

# More lines, now with the values behind:
row,SMILES,melting point [°C]
1,CCCS(=O)c1ccc(N)c([N+](=O)[O-])c1 (stereo not given),109 to 112
2,Cc1cc(Br)ccc1NC(=O)CC(=O)Sc1ccccc1,133 to 135
3,Cc1c(Cc2ccccc2)c(=O)n(Cc2ccccc2)c2cc(OCC(=O)NO)cc(OCC(=O)NO)c12,121 to 127
4,C[C@H]1C(=O)C2(CC2)C(=O)N1c1ccc(C#N)c(Cl)c1,169 to 172
5,Clc1ccc(OCc2nc3c(OCc4ccccc4)cccc3n2CCCC2CCN(CCCN3CCCCC3)CC2)cc1,58 to 60
6,COc1ccccc1CNC1CCN(C2CCN(C(=O)c3cc(C)cc(C)c3)C(Cc3ccccc3)C2)CC1 (stereo not given),71.2
7,COc1ccc(-c2cc(Cl)cc3c2NC(CN)CO3)c(C)c1 (stereo not given),98
8,CCOCc1nc2c(N)nc3c(c2n1CCCCS(N)(=O)=O)CCCC3,224 to 227
9,O=C1Nc2ccccc2SC1CCCCBr (stereo not given),100
10,COc1ccc2c(c1)c(OCc1ccccc1)c(C(=O)O)n2-c1ccccc1,123
11,COc1ccc2c3c1OC1C(O)C(C)(C)C(C)C4C(C2)N(C)CCC314 (stereo not given),110 to 112
12,CCOC(=O)Cc1c(C)n(Cc2ccccc2)c2ccc(OCc3nc4ccccc4s3)cc12,106 to 107
13,O=C(Nc1ccc(Oc2ccnc(N3CCC4(CC3)OCCO4)n2)c2ccccc12)c1cc(F)cc(N2CCCCC2)c1,195 to 196
14,CCC(=O)OCCOCn1cnc2c(=O)[nH]c(N)nc21,223 to 226
15,c1ccc(-n2c(Cc3cccnc3)nc3ccccc32)cc1,115 to 116
16,CCCCCCC(C(=O)O)n1cnc(NC(=O)c2cccc(O)c2S(=O)(=O)O)c1 (stereo not given),238 to 240
17,O=C(O)CCCCCCCCc1nc(-c2ccccc2)c(-c2ccccc2)o1,83 to 85
18,C(=C1CC(c2ccccc2)Cc2ccccc21)c1cncn1Cc1ccccc1 (stereo not given),198
19,CCCc1c(C(=O)OCC)nc2ccccc2c1OCc1ccccc1,127 to 129
20,CC(C)(C)c1ccc(Cn2cc(C(=O)C(=O)O)c3ccc(-c4ccc(OC(F)(F)F)cc4)cc32)cc1,183 to 186

row,SMILES,melting point [°C]
1,COC(=O)[C@H](Cc1cccc2ccccc12)NC(=O)[C@H](CC(=O)OC(C)(C)C)NC(=O)c1cccc(N)c1,70 to 72
2,CS(=O)(=O)N1CCN([C@@H](CNS(=O)(=O)c2ccc(OCc3ccc(C#N)cc3)cc2)C(=O)NO)CC1,108
3,O=C1C(=O)c2ccccc2C2=C1SCC1(CCN(CCCOc3ccccc3)CC1)O2,127 to 129
4,O=C1CCC(c2c[nH]c3ccc(F)cc23)C1 (stereo not given),119 to 120
5,CCCC(=O)Nc1nn(COCC[Si](C)(C)C)c2cc(Cl)c(Br)cc12,130
6,CCN(CC)C(=O)Nc1ccc(S(=O)(=O)N2C(=O)C(N[C@@H](C)C(=O)OC)(c3ccccc3Cl)c3cc(Cl)ccc32)cc1 (stereo not given in full),204
7,CC(C)[C@H](NC(=O)OC(C)(C)C)C(=O)N[C@H](CCC(=O)OCc1ccccc1)C(N)=O,149 to 151
8,CCC(c1ccc(O)cc1)c1ccc(O)cc1,131 to 133
9,O=C(CCCl)Nc1ccc(C(=O)O)cc1,225
10,CCCNC(=O)C=Cc1ccc2ccn(Cc3ccc(C(=O)O)cc3OC)c2c1,210 to 212
11,Cc1ccc(-c2ccc3c(c2)C=C(C(=O)Nc2ccc(CN(C(C)C)C(C)C)cc2)CCO3)cc1,152 to 153
12,CN(C)C1(c2cccc(F)c2)CCC(=O)CC1,83 to 88
13,O=c1[nH]nc2c3cccc(Cl)c3[nH]c(=O)n12,348 to 350
14,Cc1cc(S(=O)(=O)c2ccccc2)ccc1[N+](=O)[O-],70 to 71
15,CCN(CC)CCNC(=O)N1CCC(S(=O)c2ccc(Cl)cc2)C1 (stereo not given),128 to 130
16,Cc1nc(C=Cc2nc3ccc(F)cc3c(=O)n2-c2ccccc2Br)cs1,233 to 234
17,"Cc1ccc(S(=O)(=O)CC2COc3ccccc3O2)cc1 (single isomer, unassigned; (+))",60
18,CS(=O)(=O)c1ccc(-c2cnn(-c3ccc(F)c(F)c3)c(=O)c2OCCC2C=CCC2)cc1 (stereo not given),126 to 127
19,COc1ccc(Nc2ncnc3occ(C)c23)cc1,99 to 102
20,CC(=O)N(C)Cc1ccc2c(c1)C(Cc1ccnc(F)c1)(Cc1ccnc(F)c1)c1ccccc1-2,136 to 137

row,SMILES,melting point [°C]
1,CC(=O)OCCCCCCOc1ccccc1C(=O)Nc1ccc(C(=O)N2CCCCc3ccccc32)cc1,145 to 146
2,CCCCCCc1cc2c(cc1/C=C/c1ccc(C(=O)O)cc1)C(C)(C)CCC2(C)C,134 to 136
3,CN(CCN(CCC12CC3CC(CC(C3)C1)C2)C(=O)NCCCc1ccncc1)C(=O)CC(C)(C)C,101 to 102
4,CSc1ccc(C(=O)NCc2ccc3c(c2)C(=O)N(C2(C)CCC(=O)NC2=O)C3=O)cc1 (stereo not given),218 to 220
5,CCC1(Cc2ccc(O)cc2)NC(=O)NC1=O (stereo not given),236 to 238
6,CCOC1=CC2=CC[C@@H]3[C@H](CC[C@]4(CC)C(=O)C=C[C@@H]34)[C@H]2CC1,137
7,Cc1cccc(C2COc3cc(O)ccc3C2c2ccc(OCCN3CCCC3)cc2)c1 (stereo not given),85 to 90
8,CC(C)(CO)Cc1ccc(-c2ccc(CC(C)(C)CO)cc2)cc1,168 to 170
9,O=C(N[C@H]1CC[C@H](CCN2CCC(c3cccc4c3CCO4)CC2)CC1)c1ccc(Cl)cc1,224
10,O=C(O)CCc1cnc2ccccc2c1,180 to 181
11,O=C(c1ccccc1)N1CCN(Cc2ccccc2)CCN1C(=O)c1ccccc1,135 to 138
12,COc1ccc(Sc2ccccc2CC#N)cc1,65 to 67
13,CCCC1=C(C(=O)OCC)C(C(C)C)n2ncc(C(=O)OCC)c2N1Cc1ccc(-c2ccccc2-c2nnn[nH]2)cc1 (stereo not given),183 to 184
14,CCCCCCCCCCCCCCCCCC(=O)n1cc(F)c(=O)[nH]c1=O,101
15,COC(=O)C1Cc2ccccc2N1C(=O)C(C)(C)CSC(C)=O (stereo not given),136 to 138
16,CC1CN(c2n[nH]c(-c3ccc(Cl)cc3)c2-c2ccncn2)CCN1C (stereo not given),212 to 214
17,CC(C)N(CCC(CCN(C)C1CCCCC1)(C(N)=O)c1ccccc1)C(C)C (stereo not given),90 to 91
18,CCCc1c(OCC2Cc3cc(CC(=O)OC)cc(F)c3O2)ccc(C(C)=O)c1O (stereo not given),80 to 82
